Tested on: reactive oxygen species
Experiment: Reactive oxygen species in tBHP-challenged RAW cells (H2DCFA, flow cytometry)
Format: cell-based
Conditions: 100 nM for 18 hours, 250 μM tBHP for 15 minutes
Protocol: RAW264.7 cells were incubated with 10 and 100 nM of the synthetic triterpenoids for 18 hours, H2DCFA was then added for 30 minutes and the cells were challenged with 250 μM of tert-butyl hydroperoxide for 15 minutes to induce ROS. Mean fluorescence intensity of 50,000 cells was detected by flow cytometry. The results were obtained from three independent experiments.
The antioxidative activity of these compounds was explored as well. This experiment was based on the deacetylation and then oxidation of the non-fluorescent reagent 2′,7′-dichlorodihydrofluorescein diacetate (H2DCFA) to a fluorescent derivative. To study the effects of the TPs on oxidative stress, RAW cells were treated with 10-100 nM of the TPs for 18 hours. Cells were then incubated with 10 μM H2DCFA for […] and challenged with 250 μM of tert-butyl hydroperoxide (tBHP) for 15 minutes. The mean fluorescence intensity was measured by flow cytometry, using a 480 nm excitation wavelength and a 525 nm emission wavelength.

**Q.** How did the “protection against ROS at 100 nM compared with 10 nM” value turn out when `COC(=O)[C@]12CCC(C)(C)C[C@H]1[C@H]1C(=O)C=C3[C@@]4(C)C=C(C#N)C(=O)C(C)(C)[C@@H]4CC[C@@]3(C)[C@]1(C)CC2` [CDDO-Me, bardoxolone methyl] was run?
**A.** Its value is “slightly better”.
